Non-standard residues stand in square brackets, D forms with d. Residues, ends and D or L forms follow the SMILES beside them. ξ: configuration not given here. Ile(3ξ) = CCC(C)[C@H](N)C(=O)O
Target: T1, Pituitary adenylate cyclase-activating polypeptide (Homo sapiens, UniProt P18509)
T1 sequence (P18509 whole entry): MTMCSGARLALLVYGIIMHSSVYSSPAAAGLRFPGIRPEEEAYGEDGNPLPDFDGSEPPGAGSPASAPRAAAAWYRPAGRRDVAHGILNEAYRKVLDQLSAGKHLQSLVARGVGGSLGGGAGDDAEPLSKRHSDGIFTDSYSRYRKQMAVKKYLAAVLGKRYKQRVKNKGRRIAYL

Ki [nM]	Compound
300	CCC(C)[C@H](NC(=O)CNC(=O)[C@H](CC(=O)O)NC(=O)[C@@H](Cc1ccccc1)NC(=O)[C@@H](N)Cc1cnc[nH]1)C(=O)N[C@@H](Cc1ccccc1)C(=O)N[C@H](C(=O)N[C@@H](CC(=O)O)C(=O)N[C@@H](CO)C(=O)N[C@@H](Cc1ccc(O)cc1)C(=O)N[C@@H](CO)C(=O)N[C@@H](CCCN=C(N)N)C(=O)N[C@@H](Cc1ccc(O)cc1)C(=O)N[C@@H](CCCN=C(N)N)C(=O)N[C@@H](CCCCN)C(=O)N[C@@H](CCC(N)=O)C(=O)N[C@@H](CCSC)C(=O)N[C@@H](C)C(=O)N[C@H](C(=O)N[C@@H](CCCCN)C(=O)N[C@@H](CCCCN)C(=O)N[C@@H](Cc1ccc(O)cc1)C(=O)N[C@@H](CC(C)C)C(=O)N[C@@H](C)C(=O)N[C@@H](C)C(=O)N[C@H](C(=O)N[C@@H](CC(C)C)C(N)=O)C(C)C)C(C)C)[C@@H](C)O (stereo partly drawn) [[D-Phe2]PACAP-27]
10	CCC(C)[C@H](NC(=O)CNC(=O)[C@H](CC(=O)O)NC(=O)[C@@H](Cc1ccccc1)NC(=O)[C@@H](N)Cc1cnc[nH]1)C(=O)N[C@@H](Cc1ccccc1)C(=O)N[C@H](C(=O)N[C@@H](CC(=O)O)C(=O)N[C@@H](CO)C(=O)N[C@@H](Cc1ccc(O)cc1)C(=O)N[C@@H](CO)C(=O)N[C@@H](CCCN=C(N)N)C(=O)N[C@@H](Cc1ccc(O)cc1)C(=O)N[C@@H](CCCN=C(N)N)C(=O)N[C@@H](CCCCN)C(=O)N[C@@H](CCC(N)=O)C(=O)N[C@@H](CCSC)C(=O)N[C@@H](C)C(=O)N[C@H](C(=O)N[C@@H](CCCCN)C(=O)N[C@@H](CCCCN)C(=O)N[C@@H](Cc1ccc(O)cc1)C(=O)N[C@@H](CC(C)C)C(=O)N[C@@H](C)C(=O)N[C@@H](C)C(=O)N[C@H](C(=O)N[C@@H](CC(C)C)C(=O)NCC(=O)N[C@@H](CCCCN)C(=O)N[C@@H](CCCN=C(N)N)C(=O)N[C@@H](Cc1ccc(O)cc1)C(=O)N[C@@H](CCCCN)C(=O)N[C@@H](CCC(N)=O)C(=O)N[C@@H](CCCN=C(N)N)C(=O)N[C@H](C(=O)N[C@@H](CCCCN)C(=O)N[C@@H](CC(N)=O)C(=O)N[C@@H](CCCCN)C(N)=O)C(C)C)C(C)C)C(C)C)[C@@H](C)O (stereo partly drawn) [[D-Phe2]PACAP-38] (H-H[dF]DG[Ile(3ξ)]FTDSYSRYRKQMAVKKYLAAVLGKRYKQRVKNK-NH2)
200	CCC(C)[C@H](NC(=O)CNC(=O)[C@H](CC(=O)O)NC(=O)[C@H](Cc1ccccc1)NC(=O)[C@@H](N)Cc1cnc[nH]1)C(=O)N[C@@H](Cc1ccccc1)C(=O)N[C@H](C(=O)N[C@@H](CC(=O)O)C(=O)N[C@@H](CO)C(=O)N[C@@H](Cc1ccc(O)cc1)C(=O)N[C@@H](CO)C(=O)N[C@@H](CCCN=C(N)N)C(=O)N[C@@H](Cc1ccc(O)cc1)C(=O)N[C@@H](CCCN=C(N)N)C(=O)N[C@@H](CCCCN)C(=O)N[C@@H](CCC(N)=O)C(=O)N[C@@H](CCSC)C(=O)N[C@@H](C)C(=O)N[C@H](C(=O)N[C@@H](CCCCN)C(=O)N[C@@H](CCCCN)C(=O)N[C@@H](Cc1ccc(O)cc1)C(=O)N[C@@H](CC(C)C)C(=O)N[C@@H](C)C(=O)N[C@@H](C)C(=O)N[C@H](C(=O)N[C@@H](CC(C)C)C(N)=O)C(C)C)C(C)C)[C@@H](C)O (some centres not stated) [[Phe2]PACAP(1-27)]
10	CCC(C)[C@H](NC(=O)CNC(=O)[C@H](CC(=O)O)NC(=O)[C@H](Cc1ccccc1)NC(=O)[C@@H](N)Cc1cnc[nH]1)C(=O)N[C@@H](Cc1ccccc1)C(=O)N[C@H](C(=O)N[C@@H](CC(=O)O)C(=O)N[C@@H](CO)C(=O)N[C@@H](Cc1ccc(O)cc1)C(=O)N[C@@H](CO)C(=O)N[C@@H](CCCN=C(N)N)C(=O)N[C@@H](Cc1ccc(O)cc1)C(=O)N[C@@H](CCCN=C(N)N)C(=O)N[C@@H](CCCCN)C(=O)N[C@@H](CCC(N)=O)C(=O)N[C@@H](CCSC)C(=O)N[C@@H](C)C(=O)N[C@H](C(=O)N[C@@H](CCCCN)C(=O)N[C@@H](CCCCN)C(=O)N[C@@H](Cc1ccc(O)cc1)C(=O)N[C@@H](CC(C)C)C(=O)N[C@@H](C)C(=O)N[C@@H](C)C(=O)N[C@H](C(=O)N[C@@H](CC(C)C)C(=O)NCC(=O)N[C@@H](CCCCN)C(=O)N[C@@H](CCCN=C(N)N)C(=O)N[C@@H](Cc1ccc(O)cc1)C(=O)N[C@@H](CCCCN)C(=O)N[C@@H](CCC(N)=O)C(=O)N[C@@H](CCCN=C(N)N)C(=O)N[C@H](C(=O)N[C@@H](CCCCN)C(=O)N[C@@H](CC(N)=O)C(=O)N[C@@H](CCCCN)C(N)=O)C(C)C)C(C)C)C(C)C)[C@@H](C)O (some centres not stated) [[Phe2]PACAP(1-38)] (H-HFDG[Ile(3ξ)]FTDSYSRYRKQMAVKKYLAAVLGKRYKQRVKNK-NH2)
60	H-FTDSYSRYRKQMAVKKYLAAVL-NH2 [PACAP(5-27)]
200	H-TDSYSRYRKQMAVKKYLAAVL-NH2 [PACAP(6-27)]
8	H-TDSYSRYRKQMAVKKYLAAVLGKRYKQRVKNK-NH2 [PACAP(7-38)]
